Earlier results as cited in US8809326B2, “Isoquinolinone Rho kinase inhibitors” (Aerie Pharmaceuticals, Inc., priority 2006, dated 2014).

What was measured:
[1] = rat stroke model
[2] = porcine, IL-1 beta-induced, long term treatment

Question: Which results are given for `O=S(=O)(c1cccc2cnccc12)N1CCCNCC1` [fasudil]?
Answer: infarct size [1]: reduce; neurologic deficit [1]: reduce; coronary constrictive remodeling [2]: promote a regression of coronary constrictive remodeling; coronary stenosis [2]: progressively reduce coronary stenosis
